For 45 molecules, IC50 results are on record in patent US7868005B2, “Pyrazinyl substituted piperazine-piperidines with CXCR3 antagonist activity” (Schering Corporation, priority 2005, dated 2011).

pIC50: −log10 of the molar value.

For orientation: pIC50 means the IC50 on a negative log10 scale, so that one unit is a factor of ten.

For this experiment, the target named is T1, human CXCR3 (N-delta 4) (Homo sapiens, UniProt P49682).
T1 construct: CD8 leader (N); Flag; expressed in transfected cells; membranes prepared
T1 sequence (P49682 5-368 limits assumed): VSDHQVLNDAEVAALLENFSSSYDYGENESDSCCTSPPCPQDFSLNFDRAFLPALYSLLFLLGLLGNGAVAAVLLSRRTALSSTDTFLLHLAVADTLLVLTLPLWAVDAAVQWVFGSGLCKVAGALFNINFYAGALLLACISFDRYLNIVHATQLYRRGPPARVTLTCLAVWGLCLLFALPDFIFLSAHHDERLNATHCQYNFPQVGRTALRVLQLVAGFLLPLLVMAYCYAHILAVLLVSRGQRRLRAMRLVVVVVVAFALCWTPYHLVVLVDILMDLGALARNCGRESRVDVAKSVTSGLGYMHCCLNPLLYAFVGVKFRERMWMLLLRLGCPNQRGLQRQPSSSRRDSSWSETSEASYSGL
The experiment can be described thus: Human CXCR3 (N-delta 4) Scintillation Proximity Assay (SPA), [125I] IP-10 binding to Ba/F3-hCXCR3 membranes. The settings on record: IC50 rating, Table 1; read-out: IC50. The source says: The inventive compounds can readily be evaluated to determine activity at the CXCR3 receptors by known methods, such as, for example, development of a human CXCR3 (N-delta 4) Binding Assay.
Cloning and Expression of Human CXCR3 (N-delta 4):
The DNA encoding human CXCR3 was cloned by PCR using human genomic DNA (Promega, Madison, Wis.) as a template. The PCR primers were designed based on the published sequence of human orphan receptor GPR9 (1) with incorporated restriction sites, a Kozak consensus sequence, CD8 leader and Flag tag. The PCR product was subcloned into the mammalian expression vector pME18Sneo, a derivative of the SR-alpha expression vector (designated as pME18Sneo-hCXCR3 (N-delta 4).
IL-3-dependent mouse pro-B cells Ba/F3 were transfected by electroporation in 0.4 ml Dulbecco's PBS containing 4×10^6 cells with 20 μg of pME18Sneo-hCXCR3 (N-delta 4) plasmid DNA. Cells were pulsed at 400 Volts, 100 OHMs, 960 μFd. The transfected cells were under selection with 1 mg/ml G418 (Life Technologies, Gaithersburg, Md.). G418-resistant Ba/F3 clones were screened for CXCR3 expression by specific binding of [^125I] IP-10 (NEN Life Science Products, Boston, Mass.).
Preparation of Ba/F3-hCXCR3 (N-delta 4) Membranes:
Ba/F3 cells expressing human CXCR3 (N-delta 4) were pelleted and resuspended in the lysis buffer containing 10 mM HEPES, pH 7.5 and Complete® protease inhibitors (1 tablet per 100 ml) (Boehringer Mannheim, Indianapolis, Ind.) at a cell density of 20×10^6 cells per ml. After 5 minute incubation on ice, cells were transferred to 4639 cell disruption bomb (Parr Instrument, Moline, Ill.) and applied with 1,500 psi of nitrogen for 30 minutes on ice. Large cellular debris was removed by centrifugation at 1,000×g. Cell membrane in the supernatant was sedimented at 100,000×g. The membrane was resuspended in the lysis buffer supplemented with 10% sucrose and stored at −80° C. Total protein concentration of the membrane was determined by BCA method from Pierce (Rockford, Ill.).
Human CXCR3 (N-delta 4) Scintillation Proximity Assay (SPA):
For each assay point, 2 μg of membrane was preincubated for 1 hr with 300 μg wheat germ agglutinin (WGA) coated SPA beads (Amersham, Arlington Heights, Ill.) in the binding buffer (50 mM HEPES, 1 mM CaCl2, 5 mM MgCl2, 125 mM NaCl, 0.002% NaN3, 1.0% BSA) at room temperature. The beads were spun down, washed once, resuspended in the binding buffer and transferred to a 96-well Isoplate (Wallac, Gaithersburg, Md.). 25 pM of [^125I] IP-10 with tested compounds in a series of titration were added to start the reaction. After 3 hr reaction at room temperature, the amount of [^125I] IP-10 bound to the SPA beads was determined with a Wallac 1450 Microbeta counter.
The Ki ratings for the various compounds of the present invention are given in the afore-mentioned Table 1. From these ratings and value ranges, it would be apparent to the skilled artisan that the compounds of the invention have excellent utility as CXCR3 receptor antagonists.
For `CC[C@H]1CN(c2nc(N)c(C(N)=O)nc2Cl)CCN1C1CCN(Cc2ccc(Cl)cc2C#N)CC1` [compound 20], the pIC50 was greater than 7.60.

As for `CC[C@H]1CN(c2nc(N)c(C(N)=O)nc2Cl)CCN1C1CCN(Cc2ccc(Cl)cc2CC(=O)NCC(C)O)CC1` (stereo partly drawn) [compound 21], the negative logarithm of the IC50 (pIC50) was greater than 7.60. The value for `CC[C@H]1CN(c2nc(N)c(C(N)=O)nc2Cl)CCN1C1CCN(Cc2ccc(Cl)cc2CC(=O)NCC2CCCO2)CC1` (stereo partly drawn) [compound 22] was greater than 7.60; that for `CC[C@H]1CN(c2nc(N)c(C(N)=O)nc2Cl)CCN1C1CCN(Cc2ccc(Cl)cc2-c2nnn[nH]2)CC1` [compound 23] was 7.00 to 7.60.

As to `CC[C@H]1CN(c2nc(N)c(C(N)=O)nc2Cl)CCN1C1CCN(Cc2ccc(Cl)cc2C2COC(=O)O2)CC1` (stereo partly drawn) [compound 24], the pIC50 was 7.00 to 7.60. `CC[C@H]1CN(c2nc(N)c(C(N)=O)nc2Cl)CCN1C1CCN(Cc2ccc(-n3cccn3)cc2)CC1` [compound 25]: the pIC50 is 7.00 to 7.60. On to `CC[C@H]1CN(c2nc(N)c(C(N)=O)nc2Cl)CCN1C1CCN(Cc2ccc(Cl)cc2C(=O)O)CC1` [compound 26], for which the pIC50 was 7.00 to 7.60. On to `CC[C@H]1CN(c2nc(N)c(C(N)=O)nc2Cl)CCN1C1CCN(Cc2ccc(Cl)cc2NC(=O)C(C)O)CC1` (stereo partly drawn) [compound 27], for which the pIC50 is 7.00 to 7.60.

On to `CC[C@H]1CN(c2nc(N)c(C(N)=O)nc2Cl)CCN1C1CCN(Cc2ccc(Cl)cc2[C@@H](O)C(N)=O)CC1` [compound 28], for which the pIC50 is 7.00 to 7.60. Turning to `C[C@H]1CN(c2nc(N)c(C(N)=O)nc2Cl)CCN1C1CCN(Cc2ccc(Cl)cc2)CC1` [compound 29], the pIC50 is 7.00 to 7.60. `CC[C@H]1CN(c2nc(N)c(C(N)=O)nc2Cl)CCN1C1CCN(Cc2ccc(Cl)cc2CC(C)(C)O)CC1` [compound 30]: the pIC50 is 7.00 to 7.60. With `CC[C@H]1CN(c2nc(N)c(C(N)=O)nc2Cl)CCN1C1CCN(Cc2ccc(Cl)cc2C(=O)OC)CC1` [compound 31], the pIC50 was 7.00 to 7.60. On to `CC[C@H]1CN(c2nc(N)c(C(N)=O)nc2Cl)CCN1C1CCN(Cc2ccc(Cl)cc2CCNC=O)CC1` [compound 32], for which the negative logarithm of the IC50 (pIC50) was 7.00 to 7.60.

For `CC[C@H]1CN(c2nc(N)c(C(N)=O)nc2Cl)CCN1C1CCN(Cc2ccc(Cl)cc2CC#N)CC1` [compound 33], the pIC50 was 7.00 to 7.60. As for `CC[C@H]1CN(c2nc(N)c(C(N)=O)nc2Cl)CCN1C1CCN(Cc2ccc(Cl)cc2CCNC(N)=O)CC1` [compound 34], the figure is 7.00 to 7.60; as for `CC[C@H]1CN(c2nc(N)c(C(N)=O)nc2Cl)CCN1C1CCN(Cc2ccc(Cl)cc2CC(=O)NC)CC1` [compound 35], 7.00 to 7.60. Turning to `CC[C@H]1CN(c2nc(N)c(C(N)=O)nc2Cl)CCN1C1CCN(Cc2ccc(Cl)cc2CCNS(C)(=O)=O)CC1` [compound 36], the pIC50 is 7.00 to 7.60. On to `CC[C@H]1CN(c2nc(N)c(C(N)=O)nc2Cl)CCN1C1CCN(Cc2ccc(Cl)cc2CC(=O)O)CC1` [compound 37], for which the pIC50 is 7.00 to 7.60. In the case of `CC[C@H]1CN(c2nc(N)c(C(N)=O)nc2Cl)CCN1C1CCN(Cc2ccc(Cl)cc2CC(=O)OC)CC1` [compound 38], the pIC50 is 7.00 to 7.60. Turning to `CC[C@H]1CN(c2nc(N)c(C(N)=O)nc2Cl)CCN1C1CCN(Cc2ccc(Cl)cc2CCNC(=O)OC)CC1` [compound 39], the pIC50 is 7.00 to 7.60. In the case of `CC[C@H]1CN(c2nc(N)c(C(N)=O)nc2Cl)CCN1C1CCN([C@@H](C(=O)O)c2ccc(Cl)cc2)CC1` [compound 40], the pIC50 was 7.00 to 7.60.

Regarding `CC[C@H]1CN(c2nc(N)c(C(N)=O)nc2Cl)CCN1C1CCN(Cc2ccc(Cl)cc2CCNC(C)=O)CC1` [compound 41], the pIC50 was 7.00 to 7.60.

`CC[C@H]1CN(c2nc(N)c(C(N)=O)nc2Cl)CCN1C1CCN(Cc2ccc(Cl)cc2CC(=O)N(C)C)CC1` [compound 42]: the pIC50 is less than 7.00. As to `CC[C@H]1CN(c2nc(N)c(C(N)=O)nc2Cl)CCN1C1CCN(Cc2ccc(Cl)cc2C2NC(=O)NC2=O)CC1` (stereo partly drawn) [compound 43], the pIC50 was less than 7.00. For the molecule `CC[C@H]1CN(c2nc(N)c(C(N)=O)nc2Cl)CCN1C1CCN(Cc2ccc(Cl)cc2[C@@H](O)C(=O)NC)CC1` [compound 44], the pIC50 is less than 7.00. In the case of `CC[C@H]1CN(c2nc(N)c(C(N)=O)nc2Cl)CCN1C1CCN([C@@H](C(=O)NC2CC2)c2ccc(Cl)cc2)CC1` [compound 45], the pIC50 was less than 7.00. For the molecule `CC[C@H]1CN(c2nc(N)c(C(N)=O)nc2Cl)CCN1C1CCN(Cc2ccc(Cl)cc2CC(=O)NCCNS(C)(=O)=O)CC1` [compound 46], the pIC50 was less than 7.00.

Consider `CCNC(=O)NCCc1cc(Cl)ccc1CN1CCC(N2CCN(c3nc(N)c(C(N)=O)nc3Cl)C[C@@H]2CC)CC1` [compound 47], for which the pIC50 was less than 7.00.

For the molecule `CC[C@H]1CN(c2nc(N)c(C(N)=O)nc2Cl)CCN1C1CCN(Cc2ccc(Cl)cc2CC(=O)N2CC[C@H](O)C2)CC1` [compound 48], the pIC50 was less than 7.00. The value for `CC[C@H]1CN(c2nc(N)c(C(N)=O)nc2Cl)CCN1C1CCN([C@H](CO)c2ccc(Cl)cc2)CC1` [compound 49] was less than 7.00. As for `CC[C@H]1CN(c2nc(N)c(C(N)=O)nc2Cl)CCN1C1CCN([C@@H](C(=O)NC)c2ccc(Cl)cc2)CC1` [compound 50], the pIC50 is less than 7.00.

As for `CC[C@H]1CN(c2nc(N)c(C(N)=O)nc2Cl)CCN1C1CCN(Cc2ccc(Cl)cc2CC(=O)N2CC[C@@H](O)C2)CC1` [compound 51], the pIC50 is less than 7.00. For the molecule `CC[C@H]1CN(c2nc(N)c(C(N)=O)nc2Cl)CCN1C1CCN(Cc2ccc(Cl)cc2CCn2ccnc2)CC1` [compound 52], the pIC50 was less than 7.00. Turning to `CCOC(=O)C1CCC(Oc2ccc(CN3CCC(N4CCN(c5nc(N)c(C(N)=O)nc5Cl)C[C@@H]4CC)CC3)cc2)CC1` (stereo partly drawn) [compound 53], the negative logarithm of the IC50 (pIC50) is less than 7.00. As for `CC[C@H]1CN(c2nc(N)c(C(N)=O)nc2Cl)CCN1C1CCN(Cc2ccc(-n3cncn3)cc2)CC1` [compound 54], the figure is less than 7.00. Take `CC[C@H]1CN(c2nc(N)c(C(N)=O)nc2Cl)CCN1C1CCN(Cc2ccc(Cl)cc2CC(=O)N2CCOCC2)CC1` [compound 55]: the pIC50 was less than 7.00. Consider `CC[C@H]1CN(c2nc(N)c(C(N)=O)nc2Cl)CCN1C1CCN([C@@H](C(=O)OC)c2ccc(Cl)cc2)CC1` [compound 56], for which the pIC50 is less than 7.00. With `CC[C@H]1CN(c2nc(N)c(C(N)=O)nc2Cl)CCN1C1CCN([C@@H](C(N)=O)c2ccc(Cl)cc2)CC1` [compound 57], the pIC50 was less than 7.00. Regarding `CC[C@H]1CN(c2nc(N)c(C(N)=O)nc2Cl)CCN1C1CCN(C(CNS(C)(=O)=O)c2ccc(Cl)cc2)CC1` (stereo partly drawn) [compound 58], the pIC50 was less than 7.00. As to `CC[C@H]1CN(c2nc(N)c(C(N)=O)nc2Cl)CCN1C1CCN(Cc2ccc(C(=O)NC)cc2)CC1` [compound 59], the negative-log IC50 (pIC50) was less than 7.00. For `CC[C@H]1CN(c2nc(N)c(C(N)=O)nc2Cl)CCN1C1CCN(Cc2ccc(F)c(F)c2N2CCC[C@H]2C(C)(C)O)CC1` [compound 60], the pIC50 was less than 7.00.

In the case of `CC[C@H]1CN(c2nc(N)c(C(=O)NC)nc2Cl)CCN1C1CCN(Cc2ccc(Cl)cc2)CC1` [compound 61], the pIC50 was greater than 7.60. `CC[C@H]1CN(c2nc(N)c(C(=O)NC)nc2Cl)CCN1C1CCN([C@@H](CO)c2ccc(Cl)cc2)CC1` [compound 62]: the pIC50 was greater than 7.60. Regarding `CC[C@H]1CN(c2nc(N)c(C(=O)NC)nc2Cl)CCN1C1CCN(C(CO)c2ccc(Cl)cc2)CC1` (stereo partly drawn) [compound 63], the pIC50 was greater than 7.60. Consider `CC[C@H]1CN(c2nc(N)c(C(=O)NC)nc2Cl)CCN1C1CCN(Cc2ccc(C#N)cc2)CC1` [compound 64], for which the pIC50 is greater than 7.60.
